The source made the active and inactive calls. No cut-off for these calls is given here.
Columns and labels:
K562-IMA[r] [1] = experiment: Induction of sensitization to imatinib-induced cytotoxicity in imatinib-resistant human K562-IMA[r] cells assessed as induction of cell death measured after 72 hrs in presence of 1 uM imatinib by propidium iodide/Triton-X100 dye based FACS analysis; assay type: functional
K562-IMA[r] [2] = experiment: Decrease in STAT5 expression in imatinib-resistant human K562-IMA[r] cells at 10 uM after 24 hrs in presence of 1 uM imatinib by Western blot analysis; assay type: functional, cell-based
K562-IMA[r] [3] = experiment: Induction of sensitization to imatinib-induced cytotoxicity in imatinib-resistant human K562-IMA[r] cells assessed as gain in cell death rate at 5 uM measured after 72 hrs in presence of 1 uM imatinib by propidium iodide/Triton-X100 dye based FACS analysis relative to imatinib-treated control; assay type: functional
[4] = Solubility of compound in DMSO at 10 uM by microscopic analysis; assay type: physicochemical
[5] = molecular target: T1, Peroxisome proliferator-activated receptor gamma (Homo sapiens) (UniProt P37231); experiment: Transactivation of Gal4-fused human PPARgamma transfected in COS7 cells co-transfected with pGAL5-TK-pGL3 and pRennilla-CMV assessed as maximum intrinsic activation at 20 uM incubated for 39 hrs by dual luciferase reporter assay; assay type: cell-based
T1 sequence (whole entry): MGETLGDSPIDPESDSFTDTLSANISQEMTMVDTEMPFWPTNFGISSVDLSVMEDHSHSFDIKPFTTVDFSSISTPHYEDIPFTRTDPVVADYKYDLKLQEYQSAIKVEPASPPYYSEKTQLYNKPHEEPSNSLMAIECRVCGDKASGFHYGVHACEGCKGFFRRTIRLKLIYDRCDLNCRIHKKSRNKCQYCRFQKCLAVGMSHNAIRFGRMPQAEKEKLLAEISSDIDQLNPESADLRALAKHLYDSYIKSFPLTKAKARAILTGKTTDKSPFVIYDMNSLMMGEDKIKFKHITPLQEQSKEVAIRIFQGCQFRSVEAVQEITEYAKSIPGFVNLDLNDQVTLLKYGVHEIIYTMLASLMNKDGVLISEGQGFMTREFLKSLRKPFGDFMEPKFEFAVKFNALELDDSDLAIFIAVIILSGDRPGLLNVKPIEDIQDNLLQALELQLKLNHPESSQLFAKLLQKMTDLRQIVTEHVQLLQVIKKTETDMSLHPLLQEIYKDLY

K562-IMA[r] [6] = experiment: Induction of sensitization to imatinib induced cytotoxicity in imatinib-resistant human K562-IMA[r] cells assessed as cell death up to 2.5 uM measured after 72 hrs in presence of 1 uM imatinib by propidium iodide/Triton-X100 dye based FACS analysis; assay type: functional
[7] = Solubility of compound in water at >20 uM; assay type: physicochemical; settings: buffer
K562 = experiment: Cytotoxicity against human K562 cells assessed as cell death at 10 uM after 72 hrs by propidium iodide/Triton-X100 dye based FACS analysis; settings: k562, 72 h
COS-7 = experiment: Cytotoxicity against African green monkey COS7 cells assessed as effect on cell metabolic activity at 20 uM after 72 hrs by MTT assay; assay type: ADME, cell-based; settings: chlorocebus aethiops, cos-7, 72 h
[8] = Cytotoxicity against human HS5 cells assessed as cell death at 10 uM after 72 hrs by propidium iodide/Triton-X100 dye based FACS analysis
[9] = molecular target: T1, Peroxisome proliferator-activated receptor gamma (Homo sapiens); experiment: Transactivation of Gal4-fused human PPARgamma transfected in COS7 cells co-transfected with pGAL5-TK-pGL3 and pRennilla-CMV assessed as maximum intrinsic activation at 10 uM incubated for 39 hrs by dual luciferase reporter assay relative to pioglitazone; assay type: cell-based
K562-IMA[r] [10] = experiment: Induction of sensitization to imatinib-induced cytotoxicity in imatinib-resistant human K562-IMA[r] cells assessed as induction of cell death at 10 uM after 72 hrs in presence of 1 uM imatinib by propidium iodide/Triton-X100 dye based FACS analysis (reference value: 15%); assay type: functional
K562-IMA[r] [11] = experiment: Cytotoxicity against imatinib-resistant human K562-IMA[r] cells assessed as induction of cell death at 10 uM after 72 hrs by propidium iodide/Triton-X100 dye based FACS analysis relative to control
K562-IMA[r] [12] = experiment: Induction of sensitization to imatinib-induced cytotoxicity in imatinib-resistant human K562-IMA[r] cells assessed as induction of cell death at 10 uM after 72 hrs in presence of 1 uM imatinib by propidium iodide/Triton-X100 dye based FACS analysis; assay type: functional
K562-IMA[r] [13] = experiment: Induction of sensitization to imatinib-induced cytotoxicity in imatinib-resistant human K562-IMA[r] cells assessed as cell death at 0.1 to 10 uM measured after 72 hrs in presence of 1 uM imatinib by propidium iodide/Triton-X100 dye based FACS analysis; assay type: functional
K562-IMA[r] [14] = experiment: Cytotoxicity against imatinib-resistant human K562-IMA[r] cells assessed as cell death at 10 uM after 72 hrs by propidium iodide/Triton-X100 dye based FACS analysis

| Compound | Activity (K562-IMA[r] [1]) | Activity (K562-IMA[r] [2]) | Activity (K562-IMA[r] [3]) [%] | solubility [4] | Intrinsic activity [5] | Activity (K562-IMA[r] [6]) | solubility [7] | Activity (K562) | Activity (COS-7) | Activity [8] | Intrinsic activity [9] [%] | Activity (K562-IMA[r] [10]) | Activity (K562-IMA[r] [11]) [%] | Activity (K562-IMA[r] [12]) | Activity (K562-IMA[r] [13]) | Activity (K562-IMA[r] [14]) |
| --- | --- | --- | --- | --- | --- | --- | --- | --- | --- | --- | --- | --- | --- | --- | --- | --- |
| CCCc1nc2ccccc2n1Cc1ccc(-c2ccccc2C(N)=O)cc1 | Dose-dependent effect | Active | 16 | Soluble | inactive | inactive | Insoluble | Non-Toxic | Non-Toxic | Non-Toxic | 39.5 | 62 - 78% | < 20 |  |  |  |
| CCCc1nc2c(Br)cccc2n1Cc1ccc(-c2ccccc2C(N)=O)cc1 | Dose-dependent effect | Active | 21.4 | Soluble | inactive | inactive | Insoluble | Non-Toxic | Non-Toxic | Non-Toxic | 20.8 | 62 - 78% | < 20 |  |  |  |
| CCc1ccc(CCOc2ccc(CC3SC(=O)NC3=O)cc2)nc1 (centres undefined) [PIOGLITAZONE] |  |  |  |  |  |  |  |  |  |  |  |  |  | Active | inactive | Non-Toxic |
